Test results as given in article PMC12274187, “Novel polycyclic meroterpenoids with protein tyrosine phosphatase 1B inhibitory activity isolated from desert-derived fungi Talaromyces sp. HMT-8” (Natural Products and Bioprospecting, 2025).
Values joined by “and” are separate entries in the source; they are usually repeats but may differ in a detail not shown here. Equal values may be shown once.

Legend:
PTP1B [1] = target: T1, PTP1B (Homo sapiens, UniProt P18031); experiment: PTP1B inhibitory assay (p-NPP substrate); format: biochemical; conditions: absorbance at 405 nm, mean ± SD, three independent experiments, read-out: IC50 against PTP1B
T1 sequence (P18031 1-435): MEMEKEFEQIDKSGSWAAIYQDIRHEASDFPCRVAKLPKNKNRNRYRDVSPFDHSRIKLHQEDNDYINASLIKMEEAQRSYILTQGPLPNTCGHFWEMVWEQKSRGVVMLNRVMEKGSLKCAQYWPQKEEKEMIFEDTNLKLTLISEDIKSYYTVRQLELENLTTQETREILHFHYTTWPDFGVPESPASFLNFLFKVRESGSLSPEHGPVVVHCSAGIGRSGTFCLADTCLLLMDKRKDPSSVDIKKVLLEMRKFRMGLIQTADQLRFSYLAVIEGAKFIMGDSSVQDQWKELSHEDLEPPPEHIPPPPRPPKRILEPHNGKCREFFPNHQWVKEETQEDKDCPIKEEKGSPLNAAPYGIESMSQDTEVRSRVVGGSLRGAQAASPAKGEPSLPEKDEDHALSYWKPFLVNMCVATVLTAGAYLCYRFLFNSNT
Description: The p-nitrophenyl phosphate (p-NPP) was used as a substrate to evaluate enzyme inhibition assays, following a previously established protocol. The final assay volume was 100 μL. The 75 μL reaction buffer containing 50 mM HEPES, 100 mM NaCl, 1 mM EDTA, and 1 mM dithiothreitol, 10 μL protein, and 5 μL sample were added to a 96-well plate and incubated at room temperature for 15 min. Subsequently, 10 μL of reaction buffer containing p-NPP was added to the reaction system. Sodium orthovanadate (Na₃VO₄) and dimethyl sulfoxide (DMSO) were used as the positive and negative controls, respectively. Enzymatic activity was determined by measuring absorbance at 405 nm. The half-maximal inhibitory concentration (IC₅₀) values were obtained from three independent experiments. The percentage of inhibition was calculated using the following equation: ODcontrol-ODblank-ODcompound-ODblank/ODcontrol-ODblank×100%

PTP1B [2] = target: T1, PTP1B; experiment: Inhibition kinetic analysis (Lineweaver–Burk); format: biochemical; conditions: for Type of inhibition of PTP1B: Lineweaver–Burk double-reciprocal plot; for Vmax in presence of compound: p-NPP substrate, increasing inhibitor concentration
Description: The experimental procedure followed that described in the enzyme inhibition assay. The data were represented using Lineweaver–Burk double-reciprocal plots. The inhibition constants (Ki and Kis) were determined from the secondary plots of the slopes and intercepts derived from the Lineweaver–Burk plots.

Compound	IC50 (PTP1B [1])	Type of inhibition of PTP1B (PTP1B [2])	Vmax in presence of compound (PTP1B [2])
COC1(C(C)C)CCC2(C)C(=O)CCC3(C)Oc4cc(O)c5c(c4CC32O1)C(OC(C)=O)C(C)OC5=O (stereo not drawn) [Compound 4, talarine N]	8.54 ± 1.52 µM	–	–
COC1(C(C)C)CCC2(C)C(=O)CCC3(C)Oc4c(Cl)c(O)c5c(c4CC32O1)CC(C)OC5=O (stereo not drawn) [Compound 3, talarine M]	8.54 µM and 17.6 µM	–	–
CC1Cc2c3c(cc(O)c2C(=O)O1)OC1(C)CCC(=O)C2(C)CC=C(C(C)(C)O)OC12C3 (stereo not drawn) [Compound 2, talarine L]	1.74 ± 3.81 µM	competitive inhibitors	unchanged
CC1Cc2c3c(cc(O)c2C(=O)O1)OC1(C)CCC(O)C2(C)CCC(=O)OC12C3 (stereo not drawn) [Compound 1, talarine K]	16.5 ± 0.6 µM	–	–
CC1Cc2c3c(c(Cl)c(O)c2C(=O)O1)OC1(C)CCC2(O)OC4(C(C)(C)O)CCC2(C)C1(C3)O4 (stereo not drawn) [Compound 6, talarine P]	14.3 ± 0.86 µM	–	–
CC(=O)O[C@@H]1c2c3c(cc(O)c2C(=O)O[C@@H]1C)O[C@]1(C)CCC(=O)[C@]2(C)CC=C(C(C)C)O[C@]12C3 [Compound 12, talaromyolide J]	3.03 ± 2.25 µM	competitive inhibitors	unchanged
CC(=O)OC1c2c3c(c(Cl)c(O)c2C(=O)OC1C)OC1(C)CCC2(O)OC4(C(C)(C)O)CCC2(C)C1(C3)O4 (stereo not drawn) [Compound 5, talarine O]	6.57 ± 1.47 µM	–	–
CC1OC(=O)c2c(O)c(Cl)c3c(c2C1O)CC12OC4(O)CCC1(C)C(O)(CCC2(C)O3)C4(C)C (stereo not drawn) [Compound 7, talarine Q]	15.6 ± 1.6 µM	–	–
